Measured values taken from ChEMBL document CHEMBL1201862, “PubChem BioAssay data set” (2004).
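96-well plates; 48 h exposure; 5 concentrations. Endpoints by linear interpolation between flanking doses. Not reached: highest tested concentration assigned. GI50 marks 50% less growth.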 Calls of active or inactive are those of the source. Rule as the data show it: active = GI50 up to about 1.1 µM and inactive = higher. Non-standard residues stand in square brackets, D forms with d. Residues, ends and D or L forms follow the SMILES beside them. *: point of attachment. Cbz = O=C(OCc1ccccc1)*; Boc = CC(C)(C)OC(=O)*; Aib = CC(C)(N)C(=O)O; OBn = c1ccc(CO*)cc1; OtBu = CC(C)(C)O*; βAla = NCCC(=O)O

Tests used:
Experiment in all cases: NCI anticancer screen, dose series, 48 h
BT-549 = test system: BT-549
SNB-78 = test system: SNB-78
DLD-1 = test system: DLD-1
KM-20L2 = test system: KM-20L2
LXFL 529 = test system: LXFL 529
HOP-18 = test system: HOP-18
RXF 631 = test system: RXF 631
DMS-273 = test system: DMS-273
XF498 = test system: XF498

SMILES | GI50 (BT-549) | GI50 (DLD-1) | GI50 (KM-20L2) | other results
C=C(C)C(=O)OC1C[C@H](COC(C)=O)C2CC=C(CO)C2C2OC(=O)C(=C)[C@H]12 (some centres undefined) | 61.1 µM (inactive) |  |  | 
CC(C)(C)OC(=O)CC(NC(=O)OC(C)(C)C)C(=O)NC(CCCCNC(=O)OCc1ccccc1)C(=O)NC(C)(C)C(=O)NCCC(=O)OCc1ccccc1 (centres undefined) (Boc-D(OtBu)K(Cbz)[Aib][βAla]-OBn; configuration not given here) | > 100 µM (inactive) |  |  | 
Cc1cccc(C)c1NC(=S)NC=C1C(=O)c2ccccc2C1=O | 4.84 µM (inactive) |  |  | 
C[C@@H](C[C@H]1OC(C)(C)O[C@@H]1C(C)(C)O)[C@H]1CC=C2[C@]3(C)[C@H](O)C[C@H]4C(C)(C)[C@H](O)CC[C@]4(C)[C@H]3CC[C@]21C | 11.4 µM (inactive) |  |  | 
COC[n+]1cc2cc(OC)c(OC)cc2c2ccc3cc(OC)c(OC)cc3c21 |  | > 100 µM (inactive) | > 100 µM (inactive) | GI50 (SNB-78): > 100 µM (inactive); GI50 (LXFL 529): > 100 µM (inactive); GI50 (HOP-18): > 100 µM (inactive); GI50 (RXF 631): > 100 µM (inactive)
CCOc1ccc(-c2oc(/C=N/NS(=O)(=O)c3ccc(C)cc3)c([N+](=O)[O-])c2-c2ccc(OCC)cc2)cc1 |  | 4.98 µM (inactive) | 11.2 µM (inactive) | GI50 (SNB-78): 9.73 µM (inactive); GI50 (DMS-273): 8.41 µM (inactive); GI50 (LXFL 529): 9.93 µM (inactive)
COC(=O)C1(C(=O)OC)N=C(C)OC1c1ccccc1O (centres undefined) | > 100 µM (inactive) |  |  | 
C[C@H](CCC1SC1(C)C)C1CCC2(C)C3=C(CC[C@]12C)[C@@]1(C)CC[C@H](O)C(C)(C)C1CC3 (some centres undefined) |  | > 100 µM (inactive) | > 100 µM (inactive) | GI50 (XF498): > 100 µM (inactive); GI50 (DMS-273): > 100 µM (inactive); GI50 (LXFL 529): > 100 µM (inactive); GI50 (HOP-18): > 100 µM (inactive)
O=C1C=Cc2noc3cccc1c23 |  | 1.66 µM (inactive) | 15.5 µM (inactive) | GI50 (SNB-78): 2.86 µM (inactive); GI50 (DMS-273): 6.61 µM (inactive); GI50 (LXFL 529): 1.94 µM (inactive); GI50 (HOP-18): 18.7 µM (inactive); GI50 (RXF 631): 13.8 µM (inactive)
CC(=O)OCC(=O)[C@@]1(O)CC[C@H]2[C@@H]3C[C@H](C)C4=CC(=O)C=C[C@]4(C)[C@@]3(F)[C@@H](O)C[C@@]21C |  | > 100 µM (inactive) | > 100 µM (inactive) | GI50 (SNB-78): > 100 µM (inactive); GI50 (XF498): > 100 µM (inactive); GI50 (DMS-273): > 100 µM (inactive); GI50 (RXF 631): > 100 µM (inactive)
COc1cc(-c2oc3c(OC)cc(OC)c(O)c3c(=O)c2OC)cc(OC)c1OC | 5.32 µM (inactive) |  |  | 
OC1c2ccccc2C(O)C2OC12 (centres undefined) | > 100 µM (inactive) |  |  | 
O=C(NNS(=O)(=O)c1ccccc1)c1cccnc1 | > 100 µM (inactive) |  |  | 
COC(=O)/C=C(\C)CC/C=C(\C)CCC1OC1(C)C (centres undefined) | 11.5 µM (inactive) |  |  | 
COC(=O)C1(Cc2ccc3c(c2)CCC3)Cc2cc3c(cc2C1=O)CCC3 (centres undefined) | 7.96 µM (inactive) |  |  | 
Cc1c(C(=O)/C=C/c2cccc3ccccc23)[n+]([O-])c2ccccc2[n+]1[O-] |  | 10.6 µM (inactive) | 14.6 µM (inactive) | GI50 (SNB-78): 6.84 µM (inactive); GI50 (DMS-273): 11.7 µM (inactive); GI50 (LXFL 529): 8.02 µM (inactive); GI50 (HOP-18): 14.4 µM (inactive); GI50 (RXF 631): 18.1 µM (inactive)

SMILES | GI50 (BT-549) | GI50 (DLD-1) | GI50 (KM-20L2) | other results
CCOC(=O)C(=O)C=P(c1ccccc1)(c1ccccc1)c1ccccc1 |  | > 100 µM (inactive) | > 100 µM (inactive) | GI50 (SNB-78): > 100 µM (inactive); GI50 (DMS-273): > 100 µM (inactive); GI50 (LXFL 529): > 100 µM (inactive); GI50 (HOP-18): > 100 µM (inactive); GI50 (RXF 631): > 100 µM (inactive)
COc1ccc(C(=O)/C=C/c2cccnc2)cc1OC | 6.18 µM (inactive) |  |  | 
CCOc1cc2c(cc1O)CC[C@@H]1[C@@H]2CC[C@]2(C)C(N)CC[C@@H]12 (some centres undefined) | 11.2 µM (inactive) |  |  | 
CC1=NN2C(=N)/C(=C/c3ccc(F)cc3)C(=O)N=C2S1 | > 100 µM (inactive) |  |  | 
Cn1c(=O)c2c(nc3n2CC(=O)N3CCCCl)n(C)c1=O | > 100 µM (inactive) |  |  | 
CC(C)OP(=O)(CN(C)/C(F)=N\C(F)(F)F)OC(C)C | > 100 µM (inactive) |  |  | 
CNc1nc(N)cc(O)n1 |  | > 100 µM (inactive) | > 100 µM (inactive) | GI50 (SNB-78): > 100 µM (inactive); GI50 (DMS-273): > 100 µM (inactive); GI50 (LXFL 529): > 100 µM (inactive)
CC1=NN(c2cccc(Cl)c2)C2(C1)C(Cl)C(=O)N2c1nc2ccccc2s1 (centres undefined) | 27.8 µM (inactive) |  |  | 
Nc1ncc(/C=N/O)c(NCC2(CO)CC(CCc3ccccc3)C2)n1 (centres undefined) | > 10 µM (inactive) |  |  | 
NC(=O)CCC(CCC(N)=O)(CCC(N)=O)[N+](=O)[O-] | > 100 µM (inactive) |  |  | 
C#CCN(Cc1ccc2nc(-c3ccccc3)c(Cl)nc2c1)c1cc(OC)c(OC)c(OC)c1 |  | > 100 µM (inactive) | > 100 µM (inactive) | GI50 (SNB-78): > 100 µM (inactive); GI50 (DMS-273): 99.5 µM (inactive); GI50 (LXFL 529): > 100 µM (inactive); GI50 (HOP-18): > 100 µM (inactive); GI50 (RXF 631): > 100 µM (inactive)
O=C1NC(=S)NC(=O)C1C(c1ccccc1[N+](=O)[O-])C1C(=O)NC(=S)NC1=O.c1ccncc1 | > 100 µM (inactive) |  |  | 
O=[N+]([O-])c1cccnc1NCC1(CO)CC(Cc2ccccc2)C1 (centres undefined) | > 100 µM (inactive) |  |  | 
CC1=C(C)C2(C#N)C(=O)N3C(=NC(c4ccco4)NC3c3ccco3)C2(C#N)C(c2ccco2)N1 (centres undefined) | > 100 µM (inactive) |  |  | 
CC[C@@]12C=CC(=S)N(CCSc3ccccc3)[C@@H]1c1c(n(S(=O)(=O)c3ccc(OC)cc3)c3ccccc13)CC2 | > 100 µM (inactive) |  |  | 
C/C(=N\NS(=O)(=O)c1ccc(C)cc1)c1ccc[n+]([O-])n1 |  | 50.1 µM (inactive) | > 100 µM (inactive) | GI50 (XF498): > 100 µM (inactive); GI50 (DMS-273): > 100 µM (inactive); GI50 (LXFL 529): 45.2 µM (inactive); GI50 (HOP-18): > 100 µM (inactive)
